For one assay, the target named is T1, γ-secretase (Drosophila melanogaster, UniProt O02194).
T1 construct: endogenous in cells; host or cells: Drosophila S2 cells
The experiment in a line: Luciferase reporter assay in S2 cells, pharmacological inhibition of γ-secretase activity by DAPT. The conditions noted are these: for reporter activity without DAPT vs. with 10 μM DAPT: FIG. 8C. In kind it is cell-based. The procedure: (§1) For transfection, mini- or midi-prepped plasmid DNA (Qiagen) for each construct was adjusted to a stock concentration 100 ng/μl using a nanophotometer (Implen). For individual transfections a total amount of 200 ng DNA per 96-well plate well was used and always contained 30 ng of lexAop>FLuc2 (test construct reporter) and Act5.1Cp>RLuc (transfection control reporter), respectively. Test constructs (X-NRS-LexA) and TEV protease plasmids were added at 1:1 ratio (equimolarly adjusted to lexAop>FLuc2) to the DNA mixes; each DNA mix was supplemented with empty pBSK-SK+ vector (Stratagene) to 200 ng. S2 cells were cultured in Schneider's Drosophila medium (Invitrogen, Cat. no. 21720-024). Cultures were maintained in an air incubator at 25° C. S2 cells were split and plated into individual wells of a 96-well plate at a concentration of 5×10^5/well on day 0. 24 hours after plating (day 1), cells were transfected with Lipofectamine 2000 (Invitrogen, #11668019) with the suitable 1:1 plasmid/reagent mixture according to manufacturer's instructions and incubated for 48 hours. When induction of the metallothionein-promoter was required, CuSO4 stock medium was added in each well of the experiment to a final concentration of 0.5 mM CuSO4 24 hrs after transfection (day 2).
Cells were lysed on day 3 (48 hrs after transfection) and luciferase measurements with the Dual-Glo luciferase assay system (Promega) were performed according to the manufacturer's protocol. In brief, the supernatant was removed from each well by aspiration and cells were incubated with 200 μl passive lysis buffer on a shaker at room temperature for 30 min. Lysates were analyzed in 96-well plates with a Victor2 plate reader luminometer (PerkinElmer). Firefly and Renilla luciferase luminescence signals were collected for 10 s. Relative luciferase activities were calculated for each sample individually as principally described in Potter et al. (ref. 23) according to the following formula:
(F/R)Empty=(Σi=1^nFEmpty^i/REmpty^i)/n,
where n=number of control samples; F=Firefly luciferase luminescence signal; R=Renilla luciferase luminescence signal; Empty=lexAop>FLuc2+Ac5.1p>RLuc+BSK-SK+. Each condition was executed at least in triplicate, the average and SEM were determined for each condition, and statistical significance was evaluated using Student's t test. Plasmids used for transfection in S2 cells were: N^ECN-LexA, N^EGF-LexA, ChiN-Test, pChiN1, pChiN2, pChiN3, lexAop-FLuc2, Ac5.1-RLuc, secTEVp, intraTEVp, pBSK-SK+.

A further assay deals with Drosophila melanogaster. The experiment in a line: In vivo expression analysis of genomically integrated cirl-NRS sensors (transcriptionally activated mCherry reporter). The conditions noted are these: adult animals; for sensor activity (lexAop-mCherry reporter expression): FIG. 11. An excerpt:
To test the utility of the NRS sensor principle in vivo, an existing genomic engineering platform^13,35 was used to encode NRS sensors in alleles of the adhesion GPCR cirl/CG8639 of Drosophila melanogaster. This places CIRL-NRS expression under the endogenous regulatory control of the cirl locus (FIG. 10A). The NRS design was adapted to generate minigenes for cirl-NRS-LexA, cirl^H>A-NRS-LexA and cirl-NRS^S3-LexA by fusing the genomic fragment encoding the CIRL-ECR to the NRS-LexA cDNA (FIG. 10A,B). The resulting transgenes were inserted in the cirl gene using phiC31-assisted transformation generating fly stocks expressing the different sensors variants from the cirl locus.
Next, the functionality of CIRL-NRS was further studied in anatomical expression analyses.
To control for potential misexpression inherent to the LexA transcriptional reporter, additional cirl-NRS transgenes alternatively terminating in Ga/4 or QF2 transcription factor cassettes were generated an analysed.

The subject of assay [1] is lexAop-FLuc reporter in Drosophila Schneider 2 (S2) cells. The experiment in a line: Luciferase (lexAop-FLuc) reporter assay of NRS sensor constructs in S2 cells. In kind it is cell-based. The conditions noted are these: FIG. 9; for reporter activity in luciferase assays: S2 cells.
Excerpt: In order to conceptually establish the approach to fuse heterologous ECRs to the Notch^ITS to suppress its proteolytic activation, a sensor protein containing 4 immunoglobulin (Ig) domains of the human CD4 receptor fused to the Notch^ITS was engineered^28 (FIG. 7A).
As a positive control a constitutively active N^ECN-LexA receptor^34 with a constantly exposed S2 cleavage site was included (FIG. 7A,B).
Next, the extracellular CD4 repeats of the sensor protein were replaced with the ECR of an aGPCR, the Latrophilin/ADGRL-homolog CIRL/CG8639 (calcium independent receptor of α-latrotoxin) to enable the NRS to detect the physical dissociation of the NTF-CTF complex within the GAIN domain when appended to the Notch^ITS. Thus, the entire ECR of CIRL (including the GAIN domain, GPS, tethered agonist segment and predicted linker to the 7TM domain) was N-terminally fused to the NRS core (CIRL-NRS-LexA; FIG. 9). […] In order to distinguish between these two possibilities, we mutated the GPS of the sensor at the −2 position of its catalytic triad and replaced the conserved Histidin by an Alanine (FIG. 9) to block GAIN domain self-cleavage and eventual NTF release. […] This set of experiments establishes that the CIRL-NRS-LexA NRS can be used for monitoring the integrity of the NTF-CTF heterodimer clamped by the GAIN domain of CIRL.
as §1
Cells were lysed on day 3 (48 hrs after transfection) and luciferase measurements with the Dual-Glo luciferase assay system (Promega) were performed according to the manufacturer's protocol. […] Lysates were analyzed in 96-well plates with a Victor2 plate reader luminometer (PerkinElmer). Firefly and Renilla luciferase luminescence signals were collected for 10 s. Relative luciferase activities were calculated for each sample individually as principally described in Potter et al. (ref. 23) according to the following formula: […]
where n=number of control samples; F=Firefly luciferase luminescence signal; R=Renilla luciferase luminescence signal; Empty=lexAop>FLuc2+Ac5.1p>RLuc+BSK-SK+. Each condition was executed at least in triplicate, the average and SEM were determined for each condition, and statistical significance was evaluated using Student's t test. […]

T1 sequence (O02194 whole entry): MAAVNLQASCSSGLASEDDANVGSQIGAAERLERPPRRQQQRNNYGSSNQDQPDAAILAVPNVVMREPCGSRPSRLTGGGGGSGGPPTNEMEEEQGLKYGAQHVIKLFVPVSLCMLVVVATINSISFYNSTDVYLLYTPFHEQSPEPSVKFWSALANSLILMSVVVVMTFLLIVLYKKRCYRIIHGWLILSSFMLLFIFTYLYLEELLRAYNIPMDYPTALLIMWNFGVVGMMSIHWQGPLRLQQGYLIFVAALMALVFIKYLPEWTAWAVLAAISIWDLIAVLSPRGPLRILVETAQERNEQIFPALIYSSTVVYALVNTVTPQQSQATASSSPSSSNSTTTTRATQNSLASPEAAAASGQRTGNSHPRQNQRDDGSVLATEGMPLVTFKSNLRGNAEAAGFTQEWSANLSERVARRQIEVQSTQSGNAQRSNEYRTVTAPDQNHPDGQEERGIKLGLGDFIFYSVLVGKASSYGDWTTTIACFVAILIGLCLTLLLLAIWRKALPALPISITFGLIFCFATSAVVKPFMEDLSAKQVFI
T1 sequence (Q9VC27 23-695 partner): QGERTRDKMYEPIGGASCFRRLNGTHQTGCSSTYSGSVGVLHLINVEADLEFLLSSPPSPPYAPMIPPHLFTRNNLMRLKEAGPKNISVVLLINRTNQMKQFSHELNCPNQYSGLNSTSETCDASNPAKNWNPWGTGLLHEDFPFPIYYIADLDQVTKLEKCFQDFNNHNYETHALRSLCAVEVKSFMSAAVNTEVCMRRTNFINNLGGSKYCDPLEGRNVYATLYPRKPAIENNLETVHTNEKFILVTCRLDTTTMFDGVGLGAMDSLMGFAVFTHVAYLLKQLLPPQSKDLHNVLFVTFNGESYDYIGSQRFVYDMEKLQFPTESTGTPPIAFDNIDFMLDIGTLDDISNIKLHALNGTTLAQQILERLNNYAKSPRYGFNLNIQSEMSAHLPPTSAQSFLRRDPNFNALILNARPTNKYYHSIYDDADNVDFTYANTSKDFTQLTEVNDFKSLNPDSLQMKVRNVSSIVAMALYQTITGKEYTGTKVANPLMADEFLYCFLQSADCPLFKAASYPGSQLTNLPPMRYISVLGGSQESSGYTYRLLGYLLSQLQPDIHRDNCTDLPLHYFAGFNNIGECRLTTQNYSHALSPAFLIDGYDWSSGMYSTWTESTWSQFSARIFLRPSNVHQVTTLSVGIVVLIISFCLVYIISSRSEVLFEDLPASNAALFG
T1 sequence (Q9VQG2 whole entry partner): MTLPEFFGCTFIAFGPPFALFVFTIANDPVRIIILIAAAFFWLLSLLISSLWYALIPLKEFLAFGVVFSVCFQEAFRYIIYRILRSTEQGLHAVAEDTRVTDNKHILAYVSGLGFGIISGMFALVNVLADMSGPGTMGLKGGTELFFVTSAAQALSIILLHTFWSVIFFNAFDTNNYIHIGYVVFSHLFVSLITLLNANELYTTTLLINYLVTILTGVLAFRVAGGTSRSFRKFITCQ
T1 sequence (Q86BE9 whole entry partner): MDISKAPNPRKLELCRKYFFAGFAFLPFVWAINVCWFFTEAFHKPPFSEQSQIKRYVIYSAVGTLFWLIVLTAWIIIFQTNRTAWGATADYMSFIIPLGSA

As to `C[C@H](NC(=O)Cc1cc(F)cc(F)c1)C(=O)N[C@H](C(=O)OC(C)(C)C)c1ccccc1` [DAPT], on γ-secretase (10 μM DAPT, S2 cells), the “effect on reporter activity” value is listed as “abolished reporter activity”. The “reporter activity without DAPT vs. with 10 μM DAPT” value at γ-secretase (CD4-6TEVs-NRS-LexA construct) is recorded as 3.6 ×; at γ-secretase (CD4-6TEVs-NRS-LexA+intraTEVp) it was 7.0 ×; on γ-secretase (CD4-6TEVs-NRS-LexA+secTEVp) it was 23.4 ×; on γ-secretase (Control), 1.1 ×; on γ-secretase (N^ECN-LexA construct), 43.7 ×; on γ-secretase (N^EGF-LexA construct) it was 5.8 ×.

B1: CIRL-NRS-LexA: entire ECR of CIRL N-terminally fused to the NRS core; full-length NTF release sensor for dmCIRL (protein)
chain: MKLCILLAVVAFVGLSLGETGFPKSLSVLNSRCAHKQSCGVLAATSMFGDPCPGTHKYLEAHYQCISAAQTSTTTNRPSPPPWVLSNGPPIFGNGSGLIHPPGVGAGAPPPPRLPTLPGVVGISGNPGLFNVPPQHTAVTHSTPSSSTTAVGGGRLKGGATSTTTTKHPAGRHDGLPPPPQLHHHHNHHGEDTASPTKPSSKLPAGGNATSPSNTRILTGVGGSGTDDGTLLTTKSSPNRPPGTAASGSVVPGNGSVVRTINNINLNAAGMSGGDDESKLFCGPTHARNLYWNMTRVGDVNVQPCPGGAAGIAKWRCVLMKRIPDSGYDEYDDDISSTTPAPSGGDCLHNSSSCEPPVSMAHKVNQRLRNFEPTWHPATPDLTQCRSLWLNNLEMRVNQRDSSLISIANDMSEVTSSKTLYGGDMLVTTKIIQTVSEKMMHDKETFPDQRQREAMIMELLHCVVKTGSNLLDESQLSSWLDLNPEDQMRVATSLLTGLEYNAFLLADTIIRERSVVQKVKNILLSVRVLETKTIQSSVVFPDSDQWPLSSDRIELPRAALIDNSEGGLVRIVFAAFDRLESILKPSYDHFDLKSSRSYAILSNDSDVNAGEIQQRLRILNSKVISASLGKGRHIQLSQPITLTLKHLKTENVTNPTCVFWNYIDHAWSANGCSLESTNRTHSVCSCNHLTNFAILMDVVDEHQHSLFTMFDGNMRPRIDTAAKHQLRNDFQIHSVRGIKNPGDEDNGEPPANVKYVITGIILVIIALAFFGMVLSTQRKRSGPPKLKALTARQQEVFDLIRDHISQTGMPPTRAEIAQRLGFRSPNAAEEHLKALARKGVIEIVSGASRGIRLLQEEEEGLPLVGRVAAGEPLLAQQHIEGHYQVDPSLFKPNADFLLRVSGMSMKDIGIMDGDLLAVHKTQDVRNGQVVVARIDDEVTVKRLKKQGNKVELLPENSEFKPIVVDLRQQSFTIEGLAVGVIRNGDWLEFPGIRRPAGIPGDLAPPTDVSLGDELHLDGEDVAMAHADALDDFDLDMLGDGDSPGPGFTPHDSAPYGALDMADFEFEQMFTDALGIDEYGGASRYLDPAFLYKVVSSATMDYKDHDGDYKDHDIDYKDDDDKHRST
modifications: Full-length NTF release sensor for dmCIRL used in Example 2
In the case of B1, the “sensor activity (lexAop-mCherry reporter expression)” value with Drosophila melanogaster was “strong expression in the eye, proboscis and leg neurons”. The “expression pattern with matching reporter transgenes” value in the assay with Drosophila melanogaster (FIG. 12) is given as “strong activation”. Further, in assay [1], the “reporter activity in luciferase assays” value is reported as “high activity”. In addition, the “luciferase reporter activity, fold difference” value in assay [1] (vs. Cirl-NRS^S3-LexA) is recorded as 23.7 ×; in assay [1] (vs. Cirl^H>A-NRS-LexA), 148.8 ×.

B2: CIRL^H>A-NRS-LexA: NTF release sensor for dmCIRL, GPS cleavage site mutated (His to Ala at −2) (protein)
chain: MKLCILLAVVAFVGLSLGETGFPKSLSVLNSRCAHKQSCGVLAATSMFGDPCPGTHKYLEAHYQCISAAQTSTTTNRPSPPPWVLSNGPPIFGNGSGLIHPPGVGAGAPPPPRLPTLPGVVGISGNPGLFNVPPQHTAVTHSTPSSSTTAVGGGRLKGGATSTTTTKHPAGRHDGLPPPPQLHHHHNHHGEDTASPTKPSSKLPAGGNATSPSNTRILTGVGGSGTDDGTLLTTKSSPNRPPGTAASGSVVPGNGSVVRTINNINLNAAGMSGGDDESKLFCGPTHARNLYWNMTRVGDVNVQPCPGGAAGIAKWRCVLMKRIPDSGYDEYDDDISSTTPAPSGGDCLHNSSSCEPPVSMAHKVNQRLRNFEPTWHPATPDLTQCRSLWLNNLEMRVNQRDSSLISIANDMSEVTSSKTLYGGDMLVTTKIIQTVSEKMMHDKETFPDQRQREAMIMELLHCVVKTGSNLLDESQLSSWLDLNPEDQMRVATSLLTGLEYNAFLLADTIIRERSVVQKVKNILLSVRVLETKTIQSSVVFPDSDQWPLSSDRIELPRAALIDNSEGGLVRIVFAAFDRLESILKPSYDHFDLKSSRSYAILSNDSDVNAGEIQQRLRILNSKVISASLGKGRHIQLSQPITLTLKHLKTENVTNPTCVFWNYIDHAWSANGCSLESTNRTHSVCSCNALTNFAILMDVVDEHQHSLFTMFDGNMRPRIDTAAKHQLRNDFQIHSVRGIKNPGDEDNGEPPANVKYVITGIILVIIALAFFGMVLSTQRKRSGPPKLKALTARQQEVFDLIRDHISQTGMPPTRAEIAQRLGFRSPNAAEEHLKALARKGVIEIVSGASRGIRLLQEEEEGLPLVGRVAAGEPLLAQQHIEGHYQVDPSLFKPNADFLLRVSGMSMKDIGIMDGDLLAVHKTQDVRNGQVVVARIDDEVTVKRLKKQGNKVELLPENSEFKPIVVDLRQQSFTIEGLAVGVIRNGDWLEFPGIRRPAGIPGDLAPPTDVSLGDELHLDGEDVAMAHADALDDFDLDMLGDGDSPGPGFTPHDSAPYGALDMADFEFEQMFTDALGIDEYGGASRYLDPAFLYKVVSSATMDYKDHDGDYKDHDIDYKDDDDKHRST
modifications: Full-length NTF release sensor for dmCIRL (GPS cleavage site mutated)
Consider B2, for which, in the assay on Drosophila melanogaster, the “sensor activity (lexAop-mCherry reporter expression)” value was “abrogated NRS activation”. Besides, the “reporter activity in luciferase assays” value in assay [1] is reported as “no reporter activity”.

Source of the values: patent publication US20240010704A1, “CHIMERIC SENSOR PROTEIN AND METHODS OF USE THEREOF” (Universitaet Leipzig, priority 2020, published 2024).
